In paper PMC8597757, “Pharmacokinetic and Safety Profile of the Novel HIV Nonnucleoside Reverse Transcriptase Inhibitor MK-8507 in Adults without HIV” (Antimicrobial Agents and Chemotherapy, 2021):
“Also recorded” adds a separate entry of the source.

Legend:
[1] = Single-dose plasma pharmacokinetics of MK-8507 (suspension, study 1; tablet, study 2); assay type: in vivo; conditions: human; for Cmax: n=6, read-out: Cmax (geometric mean [95% CI]); for AUC(0-t): n=6, read-out: AUC0–168 (geometric mean [95% CI]); for concentration at 168 h: n=6, read-out: C168hr (geometric mean [95% CI])
Protocol: (§1) Study 1 was a 4-period, alternating panel (A and B), rising single-dose trial. Participants in each panel were randomized to receive single rising doses of MK-8507 (n = 6 per panel) or placebo (n = 2 per panel) as an oral suspension. All study drugs were administered after an overnight fast, except in period 4. […] There was a minimum 20-day washout interval between doses within each panel and a 10-day interval between each dosing period. […] MK-8507 in plasma was extracted by protein precipitation and analyzed by reversed-phase chromatographic separation coupled with tandem mass spectrometric detection by Merck & Co., Inc. (West Point, PA, USA). The liquid chromatography-tandem mass spectrometric (LC-MS/MS) system consisted of a Waters Acquity ultraperformance liquid chromatography system (Waters Corporation, Milford, MA, USA) employing a turbo ionspray interface in the negative ion mode. The lower limit of quantitation was 1.0 ng/mL (2.03 nM) with a linear calibration range from 1.0 to 1000 ng/mL. The mean intrarun accuracy was 94.8 to 113% (precision, ≤6.2% coefficient of variation [CV]), and the mean interrun accuracy was 94.4 to 103.0% (precision, ≤8.6% CV). […] Statistical analyses were performed using SAS software version 9.3 (SAS Institute Inc., Cary, NC, USA). […] The least-squares geometric mean (GM) and corresponding 95% CIs obtained from the models were exponentiated to provide estimates for the population GMs and CIs on the original scales.

[2] = Food effect assessment (100 mg suspension, high-fat meal vs fasted); assay type: in vivo, human
Protocol: as §1

[3] = Multiple-dose (once weekly for 3 weeks) plasma pharmacokinetics of MK-8507 tablet; assay type: in vivo, human; conditions: for AUC(0-t) / concentration at 168 h / Cmax / Tmax / half-life: human, plasma, oral; for AUC(0-t): read-out: AUC0–168 (geometric mean [95% CI]); for concentration at 168 h: read-out: C168hr (geometric mean [95% CI]); for Cmax: read-out: Cmax (geometric mean [95% CI])
Protocol: MK-8507 in plasma was extracted by protein precipitation and analyzed by reversed-phase chromatographic separation coupled with tandem mass spectrometric detection by Merck & Co., Inc. (West Point, PA, USA). The liquid chromatography-tandem mass spectrometric (LC-MS/MS) system consisted of a Waters Acquity ultraperformance liquid chromatography system (Waters Corporation, Milford, MA, USA) employing a turbo ionspray interface in the negative ion mode. The lower limit of quantitation was 1.0 ng/mL (2.03 nM) with a linear calibration range from 1.0 to 1000 ng/mL. The mean intrarun accuracy was 94.8 to 113% (precision, ≤6.2% coefficient of variation [CV]), and the mean interrun accuracy was 94.4 to 103.0% (precision, ≤8.6% CV). […] The AUC0-168hr and […] group was not statistically significant at the 0.05 level and was therefore omitted from the final model. An overall slope was estimated across all groups.

[4] = po, 30 mg, single oral dose 30 mg, suspension, fasted
[5] = po, 400 mg, single oral dose 400 mg, suspension, fasted
[6] = 100 mg suspension, compared with fasted administration
[7] = 100 mg tablet once weekly for 3 weeks, n=6
[8] = 200 mg tablet once weekly for 3 weeks, n=5/6
[9] = 400 mg tablet once weekly for 3 weeks, n=6
[10] = 100 mg, 100 mg tablet once weekly, wk 1, n=6
[11] = 100 mg, 100 mg tablet once weekly, wk 3, n=6
[12] = 200 mg, 200 mg tablet once weekly, wk 1, n=5/6
[13] = 200 mg, 200 mg tablet once weekly, wk 3, n=5
[14] = 400 mg, 400 mg tablet once weekly, wk 1, n=6
[15] = 400 mg, 400 mg tablet once weekly, wk 3, n=6

For `N#Cc1cc(Cl)cc(Oc2c(C(F)(F)F)ncn(Cc3cc(C(F)(F)F)c(=O)[nH]n3)c2=O)c1` [MK-8507], the half-life ([1]; oral, overall, discussion, read-out: terminal t½ (converted)) was roughly 2.92 days, the half-life ([1]; oral, single doses 2 to 1,200 mg, range across doses, read-out: mean terminal half-life (t1/2)) was 2.42 to 3.5 days and the half-life ([1]; oral, some participants, 336 h of PK sampling, read-out: t1/2 in some participants) was greater than 4.17 days. It also gave a Tmax ([1]; oral, suspension, fasted, range across doses, read-out: median Tmax) of 2 to 4 h, a Cmax ([1]; po, 2 mg, single oral dose 2 mg, suspension, fasted) of 50 nM and an AUC(0-inf) ([1]; po, 10 mg, single oral dose 10 mg, suspension, fasted, n=6, read-out: AUC0-∞ (geometric mean [95% CI])) of 15.2 µM·h. For the same compound, the Cmax ([1]; po, 10 mg, single oral dose 10 mg, suspension, fasted) was 220 nM, the AUC(0-t) [1, 4] was 39.7 µM·h and the concentration at 168 h [1, 4] was 100 nM. It also gave a Tmax ([1]; po, 30 mg, single oral dose 30 mg, suspension, fasted, n=6, read-out: Tmax (median [min, max])) of 2 h, a Tmax ([1]; po, 100 mg, single oral dose 100 mg, suspension, fasted, n=6, read-out: Tmax (median [min, max])) of 2.04 h and an AUC(0-t) ([1]; po, 200 mg, single oral dose 200 mg, suspension, fasted) of 287 µM·h. The concentration at 168 h [1, 5] was 1300 nM, the Cmax [1, 5] was 11500 nM and the Tmax ([1]; po, oral doses across both studies, suspension or tablet, read-out: time to maximum concentration (Tmax)) was 2 to 7 h. For the same compound, the “effect of a high-fat meal on MK-8507 pharmacokinetics” value ([2]; 100 mg suspension) was “no clinically meaningful effect; also recorded: no meaningful effect on AUC0–∞ or C168hr”, the “change in C168hr by a high-fat meal” value [2, 6] was “no change” and the “decrease of AUC0–∞ by a high-fat meal” value [2, 6] was roughly 9%. For the same compound, the “decrease of Cmax by a high-fat meal” value [2, 6] was 35%, the “delay of Tmax by a high-fat meal” value [2, 6] was roughly 8 h and the AUC(0-inf) ([2]; human, single oral dose 100 mg (fed), suspension, following a high-fat meal, plasma, n=6, read-out: AUC0-∞ (geometric mean [95% CI])) was 159 µM·h. For the same compound, the AUC(0-t) ([2]; human, single oral dose 100 mg (fed), suspension, following a high-fat meal, plasma, n=6, read-out: AUC0–168 (geometric mean [95% CI])) was 126 µM·h, the half-life ([2]; human, single oral dose 100 mg (fed), suspension, following a high-fat meal, plasma, n=6, read-out: Apparent terminal t½ (geometric mean [%GVC]) (converted)) was 3.02 days and the concentration at 168 h ([2]; human, single oral dose 100 mg (fed), suspension, following a high-fat meal, plasma, n=6, read-out: C168hr (geometric mean [95% CI])) was 310 nM. The Cmax ([2]; human, single oral dose 100 mg (fed), suspension, following a high-fat meal, plasma, n=6, read-out: Cmax (geometric mean [95% CI])) was 1670 nM, the Tmax ([2]; human, single oral dose 100 mg (fed), suspension, following a high-fat meal, plasma, n=6, read-out: Tmax (median [min, max])) was 10 h and the “GMR fed/fasted, C168hr” value ([2]; single oral dose 100 mg suspension, high-fat meal vs overnight fast, n=6) was 1.02. For the same compound, the “GMR (accumulation ratio, wk 3/wk 1 [90% CI]) of AUC0–168” value [3, 7] was 1.18 (1.12–1.25), the “GMR (accumulation ratio, wk 3/wk 1 [90% CI]) of C168hr” value [3, 7] was 1.14 (0.87–1.50) and the “GMR (accumulation ratio, wk 3/wk 1 [90% CI]) of Cmax” value [3, 7] was 1.12 (0.96–1.30). The “GMR (accumulation ratio, wk 3/wk 1 [90% CI]) of AUC0–168” value [3, 8] was 1.23 (1.16–1.31), the “GMR (accumulation ratio, wk 3/wk 1 [90% CI]) of C168hr” value [3, 8] was 1.22 (0.90–1.65) and the “GMR (accumulation ratio, wk 3/wk 1 [90% CI]) of Cmax” value [3, 8] was 1.15 (0.98–1.36). For the same compound, the “GMR (accumulation ratio, wk 3/wk 1 [90% CI]) of AUC0–168” value [3, 9] was 1.23 (1.16–1.31), the “GMR (accumulation ratio, wk 3/wk 1 [90% CI]) of C168hr” value [3, 9] was 1.21 (0.92–1.59) and the “GMR (accumulation ratio, wk 3/wk 1 [90% CI]) of Cmax” value [3, 9] was 1.06 (0.91–1.23). The “accumulation with multiple dosing” value ([3]; QW over 3 weeks, 100-mg, 200-mg, 400-mg doses) was “minimal accumulation; also recorded: modest accumulation”, the “accumulation GMR (day 36, day 22), C168hr” value ([3]; QW over 3 weeks, 100-mg, 200-mg, 400-mg doses, range) was 1.14 to 1.22 and the AUC(0-t) [3, 10] was 157 µM·h. For the same compound, the concentration at 168 h [3, 10] was 320 nM, the Cmax [3, 10] was 2.94 µM and the Tmax ([3]; 100 mg, 100 mg tablet once weekly, wk 1, n=6, read-out: Tmax (median [min, max])) was 3 h. It also gave a concentration at 168 h ([3]; 100 mg, 100 mg tablet once weekly, wk 2, n=6) of 390 nM, an AUC(0-t) [3, 11] of 185 µM·h and a half-life ([3]; 100 mg, 100 mg tablet once weekly, wk 3, n=6, read-out: Apparent terminal t½ (geometric mean [%GVC]) (converted)) of 2.78 days. It also gave a concentration at 168 h [3, 11] of 370 nM, a Cmax [3, 11] of 3.29 µM and a Tmax ([3]; 100 mg, 100 mg tablet once weekly, wk 3, n=6, read-out: Tmax (median [min, max])) of 3.03 h. For the same compound, the AUC(0-t) [3, 12] was 285 µM·h, the concentration at 168 h [3, 12] was 590 nM and the Cmax [3, 12] was 4.87 µM. The Tmax ([3]; 200 mg, 200 mg tablet once weekly, wk 1, n=5/6, read-out: Tmax (median [min, max])) was 5 h, the concentration at 168 h ([3]; 200 mg, 200 mg tablet once weekly, wk 2, n=5) was 700 nM and the AUC(0-t) [3, 13] was 352 µM·h. The half-life ([3]; 200 mg, 200 mg tablet once weekly, wk 3, n=5, read-out: Apparent terminal t½ (geometric mean [%GVC]) (converted)) was 3.09 days, the concentration at 168 h [3, 13] was 720 nM and the Cmax [3, 13] was 5.61 µM. It also gave a Tmax ([3]; 200 mg, 200 mg tablet once weekly, wk 3, n=5, read-out: Tmax (median [min, max])) of 4.01 h, an AUC(0-t) [3, 14] of 563 µM·h and a concentration at 168 h [3, 14] of 1230 nM. The Cmax [3, 14] was 10.8 µM, the Tmax ([3]; 400 mg, 400 mg tablet once weekly, wk 1, n=6, read-out: Tmax (median [min, max])) was 4 h and the concentration at 168 h ([3]; 400 mg, 400 mg tablet once weekly, wk 2, n=6) was 1110 nM. The AUC(0-t) [3, 15] was 694 µM·h, the half-life ([3]; 400 mg, 400 mg tablet once weekly, wk 3, n=6, read-out: Apparent terminal t½ (geometric mean [%GVC]) (converted)) was 3.05 days and the concentration at 168 h [3, 15] was 1490 nM. For the same compound, the Cmax [3, 15] was 11.5 µM, the Tmax ([3]; 400 mg, 400 mg tablet once weekly, wk 3, n=6, read-out: Tmax (median [min, max])) was 4 h and the half-life ([3]; 400 mg, 100, 200, 400 mg tablet once weekly, range across doses, read-out: geometric mean apparent t1/2) was 2.79 to 3.08 days. The Tmax ([3]; 400 mg, 100, 200, 400 mg tablet once weekly, range across doses, read-out: median time of peak concentration postdose) was 3 to 5 h.
